This note sets out measurements from patent US7888347B2, “Pyrazolo [3,4-D]azepine derivatives as histamine H3 antagonists” (Glaxo Group Limited, priority 2005, dated 2011).

The target of the assay is T1, histamine H3 receptor (Homo sapiens, UniProt Q9Y5N1).
T1 construct: expressed in transfected cells; host or cells: CHO K1 cells (pSwitch/pGene GeneSwitch system, mifepristone-induced), clone 3H3; membrane preparation
In words: Histamine H3 functional antagonist assay ([35S]-GTPγS SPA on membranes). It counts as biochemical. The conditions noted are these: hydrochloride salts tested; membrane prepared from cultured H3 cells; averages of a number of experiments; read-out: functional pKi (fpKi), histamine H3 functional antagonism (converted). From the text:
A membrane preparation containing histamine H3 receptors may be prepared in accordance with the following procedures:
(i) Generation of Histamine H3 Cell Line
DNA encoding the human histamine H3 gene (Huvar, A. et al. (1999) Mol. Pharmacol. 55(6), 1101-1107) was cloned into a holding vector, pCDNA3.1 TOPO (InVitrogen) and its cDNA was isolated from this vector by restriction digestion of plasmid DNA with the enzymes BamH1 and Not-1 and ligated into the inducible expression vector pGene (InVitrogen) digested with the same enzymes. The GeneSwitch™ system (a system where in transgene expression is switched off in the absence of an inducer and switched on in the presence of an inducer) was performed as described in U.S. Pat. Nos. 5,364,791; 5,874,534; and 5,935,934. Ligated DNA was transformed into competent DH5α E. coli host bacterial cells and plated onto Luria Broth (LB) agar containing Zeocin™ (an antibiotic which allows the selection of cells expressing the sh ble gene which is present on pGene and pSwitch) at 50 μg ml^−1. Colonies containing the re-ligated plasmid were identified by restriction analysis. DNA for transfection into mammalian cells was prepared from 250 ml cultures of the host bacterium containing the pGeneH3 plasmid and isolated using a DNA preparation kit (Qiagen Midi-Prep) as per manufacturers guidelines (Qiagen).
CHO K1 cells previously transfected with the pSwitch regulatory plasmid (InVitrogen) were seeded at 2×10e6 cells per T75 flask in Complete Medium, containing Hams F12 (GIBCOBRL, Life Technologies) medium supplemented with 10% v/v dialysed foetal bovine serum, L-glutamine, and hygromycin (100 μg ml^−1), 24 hours prior to use. Plasmid DNA was transfected into the cells using Lipofectamine plus according to the manufacturers guidelines (InVitrogen). 48 hours post transfection cells were placed into complete medium supplemented with 500 μg ml^−1 Zeocin™.
10-14 days post selection 10 nM Mifepristone (InVitrogen), was added to the culture medium to induce the expression of the receptor. 18 hours post induction cells were detached from the flask using ethylenediamine tetra-acetic acid (EDTA; 1:5000; InVitrogen), following several washes with phosphate buffered saline pH 7.4 and resuspended in Sorting Medium containing Minimum Essential Medium (MEM), without phenol red, and supplemented with Earles salts and 3% Foetal Clone II (Hyclone). Approximately 1×10e7 cells were examined for receptor expression by staining with a rabbit polyclonal antibody, 4a, raised against the N-terminal domain of the histamine H3 receptor, incubated on ice for 60 minutes, followed by two washes in sorting medium. Receptor bound antibody was detected by incubation of the cells for 60 minutes on ice with a goat anti rabbit antibody, conjugated with Alexa 488 fluorescence marker (Molecular Probes). Following two further washes with Sorting Medium, cells were filtered through a 50 μm Filcon™ (BD Biosciences) and then analysed on a FACS Vantage SE Flow Cytometer fitted with an Automatic Cell Deposition Unit. Control cells were non-induced cells treated in a similar manner. Positively stained cells were sorted as single cells into 96-well plates, containing Complete Medium containing 500 μg ml^−1 Zeocin™ and allowed to expand before reanalysis for receptor expression via antibody and ligand binding studies. One clone, 3H3, was selected for membrane preparation.
(ii) Membrane Preparation from Cultured Cells
All steps of the protocol are carried out at 4° C. and with pre-cooled reagents. The cell pellet is resuspended in 10 volumes of homogenisation buffer (50 mM N-2-hydroxyethylpiperazine-N′-2-ethanesulfonic acid (HEPES), 1 mM ethylenediamine tetra-acetic acid (EDTA), pH 7.4 with KOH), supplemented with 10e-4M leupeptin (acetyl-leucyl-leucyl-arginal; Sigma L2884), 25 μg/ml bacitracin (Sigma B0125), 1 mM phenylmethylsulfonyl fluoride (PMSF) and 2×10e-6M pepstatin A (Sigma). […]

T1 sequence (Q9Y5N1 whole entry): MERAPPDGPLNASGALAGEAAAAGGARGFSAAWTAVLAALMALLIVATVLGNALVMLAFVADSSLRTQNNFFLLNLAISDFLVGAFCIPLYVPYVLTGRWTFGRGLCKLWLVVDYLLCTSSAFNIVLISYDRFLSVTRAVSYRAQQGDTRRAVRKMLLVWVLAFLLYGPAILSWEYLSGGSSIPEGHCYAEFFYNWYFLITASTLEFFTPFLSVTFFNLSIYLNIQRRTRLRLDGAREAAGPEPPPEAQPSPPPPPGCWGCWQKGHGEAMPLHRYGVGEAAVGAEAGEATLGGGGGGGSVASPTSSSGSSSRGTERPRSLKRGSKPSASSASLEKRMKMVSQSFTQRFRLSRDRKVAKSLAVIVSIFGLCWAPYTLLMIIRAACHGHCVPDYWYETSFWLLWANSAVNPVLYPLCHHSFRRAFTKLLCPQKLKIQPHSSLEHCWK

Take `CC(C)N1CCc2cn(-c3ccc(N4CCOC4=O)cc3)nc2CC1` [Example E9, 3-{4-[6-(1-Methylethyl)-5,6,7,8-tetrahydropyrazolo[3,4-d]azepin-2(4H)-yl]phenyl}-1,3-oxazolidin-2-one]: the Ki is less than 1 nM. As for `CC(C)N1CCc2cn(-c3ccc(N4CCN(C)C4=O)cc3)nc2CC1` [Example E10, 1-Methyl-3-{4-[6-(1-methylethyl)-5,6,7,8-tetrahydropyrazolo[3,4-d]azepin-2(4H)-yl]phenyl}-2-imidazolidinone], the Ki was less than 1 nM. Consider `O=C1CCCN1c1ccc(-n2cc3c(n2)CCN(C2CCC2)CC3)cn1` [Example E12, 1-[5-(6-Cyclobutyl-5,6,7,8-tetrahydropyrazolo[3,4-d]azepin-2(4H)-y)-2-pyridinyl]-2-pyrrolidinone], for which the Ki was less than 1 nM. For the molecule `O=C1CCCN1c1ccc(-n2cc3c(n2)CCN(C2CCC2)CC3)cc1` [Example E13], the Ki was less than 0.316 nM. As for `CC(C)N1CCc2cn(-c3ccc(N4CCCC4=O)cc3)nc2CC1` [Example E14, 1-{4-[6-(1-Methylethyl)-5,6,7,8-tetrahydropyrazolo[3,4-d]azepin-2(4H)-yl]phenyl}-2-pyrrolidinone], the Ki was less than 1 nM. For the molecule `Cc1noc(-c2ccc(-n3cc4c(n3)CCN(C(C)C)CC4)cc2)n1` [Example E15, 6-(1-Methylethyl)-2-[4-(3-methyl-1,2,4-oxadiazol-5-yl)phenyl]-2,4,5,6,7,8-hexahydropyrazolo[3,4-d]azepine], the Ki was less than 1 nM. For the molecule `CCN1CCc2cn(-c3ccc(N4CCCC4=O)cc3)nc2CC1` [Example E18, 1-[4-(6-Ethyl-5,6,7,8-tetrahydropyrazolo[3,4-d]azepin-2(4H)-yl)phenyl]-2-pyrrolidinone], the Ki was less than 0.316 nM. The result for `CC(C)CN1CCc2cn(-c3ccc(N4CCCC4=O)cc3)nc2CC1` [Example E20] reads less than 1 nM. On to `O=C1CCCN1c1ccc(-n2cc3c(n2)CCN(C2CCCC2)CC3)cc1` [Example E24, 1-[4-(6-Cyclopentyl-5,6,7,8-tetrahydropyrazolo[3,4-d]azepin-2(4H)-yl)phenyl]-2-pyrrolidinone], for which the Ki was less than 1 nM.

For `Cc1noc(-c2ccc(-n3cc4c(n3)CCN(C3CCC3)CC4)cc2)n1` [Example E25, 6-Cyclobutyl-2-[4-(3-methyl-1,2,4-oxadiazol-5-yl)phenyl]-2,4,5,6,7,8-hexahydropyrazolo[3,4-d]azepine], the Ki is less than 1 nM. The result for `Cc1noc(-c2ccc(-n3cc4c(n3)CCN(C3CCCC3)CC4)cc2)n1` [Example E27, 6-Cyclopentyl-2-[4-(3-methyl-1,2,4-oxadiazol-5-yl)phenyl]-2,4,5,6,7,8-hexahydropyrazolo[3,4-d]azepine] reads less than 1 nM; that for `O=C1OCCN1c1ccc(-n2cc3c(n2)CCN(C2CCCC2)CC3)cc1` [Example E30], less than 1 nM; that for `CN1CCN(c2ccc(-n3cc4c(n3)CCN(C3CCCC3)CC4)cc2)C1=O` [Example E31], less than 1 nM. In the case of `CN1CCN(c2ccc(-n3cc4c(n3)CCN(C3CCC3)CC4)cc2)C1=O` [Example E36], the Ki is less than 0.316 nM.

On to `O=C1OCCN1c1ccc(-n2cc3c(n2)CCN(C2CCC2)CC3)cc1` [Example E37, 3-[4-(6-Cyclobutyl-5,6,7,8-tetrahydropyrazolo[3,4-d]azepin-2(4H)-yl)phenyl]-1,3-oxazolidin-2-one], for which the Ki was less than 0.316 nM.

As to `c1cc(-n2cc3c(n2)CCN(C2CCC2)CC3)ccc1N1CCOCC1` [Example E39, 6-Cyclobutyl-2-[4-(4-morpholinyl)phenyl]-2,4,5,6,7,8-hexahydropyrazolo[3,4-d]azepine], the Ki is less than 1 nM. As for `CC(C)CN1CCc2cn(-c3ccc(N4CCOC4=O)cc3)nc2CC1` [Example E42], the Ki was less than 1 nM.

Regarding `Cc1ccc(N2CCC(n3cc4c(n3)CCN(C3CCC3)CC4)CC2)cn1` [Example E44, 6-Cyclobutyl-2-[1-(6-methyl-3-pyridinyl)-4-piperidinyl]-2,4,5,6,7,8-hexahydropyrazolo[3,4-d]azepine], the Ki was less than 1 nM.
